We go through three molecules from US9855230B2 (ViiV Healthcare UK (No. 5) Limited, priority 2014, dated 2018).

SMILES strings stand for the structures. Where a name gives a salt, the structure may show the parent alone. Read-outs that look alike come from different tables or passages of the source.

The test system of data set [1] is recombinant NL4-3 virus (nef section replaced with Renilla luciferase gene) in MT-2 cells. Kind of data set: whole plant or invertebrate. Format: cell-based, HIV. The note with it: NL43, luciferase activity in MT-2 cells infected 4-5 days with recombinant NL4-3 virus. The gist of the method:
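Nef-deleted NL4-3 reporter virus carrying Renilla luciferase was used to infect MT-2 cells in the presence of serial compound dilutions. After 4-5 days of infection, antiviral activity was quantified from luciferase activity using a live-cell substrate.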

Data set [2] is described as follows: Compound cytotoxicity (CC50), XTT-based colorimetric assay. Format: cell-based. The note with it: human; uninfected MT2 cells, day 4, XTT assay. A digest of the protocol:
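Run under the antiviral-assay protocol but without virus. Viability was read on day 4 and CC50 values were derived from the readout.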
A general note: Formazan colour is commonly taken as a measure of viable cells.

For `Cc1ccccc1S(=O)(=O)NC(=O)N[C@@H](Cc1cc(F)cc(F)c1)c1ncccc1-c1ccc(F)c2ccccc12` [Example 132, (S)-N-((2-(3,5-difluorophenyl)-1-(3-(4-fluoronaphthalen-1-yl)pyridin-2-yl)ethyl)carbamoyl)-2-methylbenzenesulfonamide, TFA], the EC50 in data set [1] (read-out: Activity) is greater than 1 µM; in data set [1] (read-out: EC50) it was 4.81 µM. Further, it took 73 µM to reach half-maximal cytotoxicity in data set [2] (CC50 at 4 day).

For the molecule `Cc1cc(-c2cccnc2[C@H](Cc2cc(F)cc(F)c2)NC(=O)NS(=O)(=O)c2ccccc2C)c(C)s1` [Example 133, (S)-N-((2-(3,5-difluorophenyl)-1-(3-(2,5-dimethylthiophen-3-yl)pyridin-2-yl)ethyl)carbamoyl)-2-methylbenzenesulfonamide, TFA], the EC50 in data set [1] (read-out: Activity) was greater than 1 µM. Further, the CC50 at 4 day in data set [2] is 71 µM.

In the case of `COc1c(F)cc(F)cc1-c1cccnc1[C@H](Cc1cc(F)cc(F)c1)NC(=O)NS(=O)(=O)c1ccccc1C` [Example 134], the EC50 in data set [1] (read-out: Activity) is greater than 1 µM. Also, in data set [2], the CC50 at 4 day was greater than 50 µM.

In general, CC50 refers to the concentration at which the toxic effect on the cells reaches its halfway point. A low value points to greater toxicity to the cells.
